In US9339486B2, “Heterocyclic modulators of cannabinoid receptors” (THE CLEVELAND CLINIC FOUNDATION, priority 2008, dated 2016):
Read-outs that look alike come from different tables or passages of the source.

Columns and labels:
CB1 = CB1 (Homo sapiens (Human), UniProt P21554); assay: CB1/CB2 Functional Assay (GTPγ[35S]), CB1 membranes; type: biochemical
Experimental: A dose response curve was generated at eight concentrations in duplicate on CB1 and CB2 in light of reference agonists. The reference agonists for cannabinoid receptors was CP55,940. See FIGS. 1A, 1B, 2A, 2B, 3A and 3B.
Membranes (CB1, ES-110-MG or CB2, ES-111-MG) were mixed with GDP (volume:volume) and incubated for at least 15 min on ice. In parallel, GTPγ[^35S] were mixed with the beads (volume:volume) just before starting the reaction. The following reagents were successively added in the wells of an Optiplate: 50 μl of ligand, 20 μl of the membranes:GDP mix, 10 μl of assay buffer for agonist testing and 20 μl of the GTPγ[^35S]: beads mix. The plates were covered with a topseal, shaken on an orbital shaker for 2 min, and then incubated between 30 to 60 min. at room temperature. Then the plates were centrifuged for 10 min at 2000 rpm, incubated at room temperature between 1 to 4 hours and counted for 1 min with a PerkinElmer TopCount reader.

rat CB1 (rCB1) = rat CB1 (rCB1) (Rattus norvegicus (Rat), UniProt P20272); assay: cAMP activation assay rCB1; type: cell-based
Experimental: The test was performed in 96 well plates. For testing, 12 μl of cells (2×10^3 cells/well) were mixed with 12 μl of agonist at increasing concentrations. […] The plates were then incubated for 30 min at room temperature. After addition of the lysis buffer, cAMP concentrations were estimated, according to the manufacturer specification, with the HTRF kit from Cis-Bio International (Catalogue number 62AM2PEB).

[1] = tested on: paclitaxel-induced neuropathic pain model; assay: animal or person; type: in vivo, rat; settings: for ED50: Rattus norvegicus, ip
Experimental: Groups of rats received daily i.p. injections of either vehicle or 1.0 mg/kg paclitaxel daily for four consecutive days for a final cumulative dose of 4 mg/kg; using an injection volume of 1 ml/kg. Polomano, R. C., et al., A Painful Peripheral Neuropathy in the Rat Produced by the Chemotherapeutic Drug, Paclitaxel, Pain, 2001, 94:293-304. The vehicle used in our experiments was the same vehicle used clinically for paclitaxel injections and is composed of a mixture of 10% saline and Cremophor EL® and […]. Baseline responses to mechanical stimulation of the hindpaw (see below) were established on day zero and continued daily until the development of neuropathy was confirmed.
Rats were placed in a compartment with a wire mesh bottom and allowed to acclimate for a minimum of 30 min before testing. Mechanical sensitivity was assessed using a series of Von Frey filaments with logarithmic incremental stiffness (0.41, 0.70, 1.20, 2.00, 3.63, 5.50, 8.50, and 15.1 g) (Stoelting, Wood Dale, Ill.) as previously described, and 50% probability withdrawal thresholds were calculated with the up-down method. Chaplan, S. R., et al., Quantitative Assessment of Tactile Allodynia in the Rat Paw, J. Neurosci. Methods, 1994, 53:55-63; Dixon, W., The Up-and-Down Method for Small Samples, J. Am. Stat. Assoc., 1965, 60:967-78. In brief, beginning with the 2.0-g probe, filaments were applied to the plantar surface of a hind paw for 6-8 s, in an ascending or descending order after a negative or positive withdrawal response, respectively. Six consecutive responses from the first change in the response were used to calculate the withdrawal threshold (in grams). In cases where response thresholds fell outside the range of detection, 15.00 and 0.25 g were, respectively, assigned for continuous negative or positive responses to the limit of stimuli. The percent maximal possible effect (% MPE) was calculated as ([postdrug threshold−baseline threshold]/[cutoff threshold (15 g)−baseline threshold])×100.
To determine sensitivity to noxious heat, rats were placed in plexiglass enclosures on a transparent glass surface maintained at 30° C. and allowed to acclimate for 30 min. A thermal testing apparatus, consisting of a heat-emitting projector lamp and an electronic timer, was used. The device was activated after the lamp is placed directly beneath the planter surface of the hindpaw. The paw withdrawal latency in response to the radiant heat was recorded by a digital timer. A cutoff of 30 s was used to prevent potential tissue damage. After the baseline was measured, three groups of naïve rats (n=10) received 1.0, 3.0, or 10 mg/kg of the compound of Example 3 i.p. Response latencies were determined twice for each rat before drug injection and at 5, 10, 15, 30, 45, 60, 90 and 120 min after IP injection. The percent maximal possible effect (% MPE) was calculated as ([postdrug latency−baseline latency]/[cutoff time (30 s)−baseline latency])×100.
Statistical analyses were carried out using BMDP 2007 (Statistical Solutions, Saugus, Mass., USA) and Graph Pad Prism (version 4.03; Graph Pad Software Inc., San Diego, Calif., USA). Data were analyzed using one-way ANOVA, repeated measures ANOVA, or t-test where appropriate. If ANOVA was significant, Tukey-Kramer post hoc analysis was used for multiple group comparison. Area under the curve (AUC) was calculated using the trapezoidal rule. The results are presented as mean±s.e. mean and were considered significant at P<0.05. Analyses of the dose-response curves and statistics were obtained using the pharmacologic software programs of Tallarida and Murray and included calculation of the ED50 values and their 95% confidence intervals (CI). Tallarida, R. J., et al., Manual of Pharmacologic Calculations With Computer Programs, Second ed. New York: Springer-Verlag, 1987.

Chain of CB1 (P21554 whole entry): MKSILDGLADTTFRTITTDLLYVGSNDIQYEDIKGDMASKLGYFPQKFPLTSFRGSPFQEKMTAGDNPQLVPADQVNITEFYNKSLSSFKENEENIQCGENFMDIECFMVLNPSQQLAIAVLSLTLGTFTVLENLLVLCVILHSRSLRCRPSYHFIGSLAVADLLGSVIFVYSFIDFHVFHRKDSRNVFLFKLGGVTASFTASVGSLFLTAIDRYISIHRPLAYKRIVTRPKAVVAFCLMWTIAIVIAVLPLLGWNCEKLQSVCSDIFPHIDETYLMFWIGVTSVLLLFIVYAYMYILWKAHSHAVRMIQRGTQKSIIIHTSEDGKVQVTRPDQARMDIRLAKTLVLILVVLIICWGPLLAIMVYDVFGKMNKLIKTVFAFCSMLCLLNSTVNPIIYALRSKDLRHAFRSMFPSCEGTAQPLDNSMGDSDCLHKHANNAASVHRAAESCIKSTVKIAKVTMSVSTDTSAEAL

CC1(Cc2ccccc2)COc2cc(C(=O)N3CCCCC3)ccc21 (centres unmarked) [Example 3, 3-benzyl-3-methyl-2,3-dihydrobenzofuran-6-carboxylic acid-piperidine amide]
Compound Function (CB1): Agonist | % Activation Average (CB1; reference agonist CP55,940): 22.85% | activity at rCB1 receptors (rat CB1 (rCB1)): did not exhibit any activity | EC50 (rat CB1 (rCB1); read-out: Agonist EC50 (mean ± s.e. mean) cAMP activation assays rCB1): > 10 µM | ED50 ([1]; 20 min, read-out: ED50 for suppressing thermal hyperalgesia): 13.5 mg/kg | ED50 ([1]; read-out: ED50 tactile allodynia (% MPE withdrawal threshold AUC)): 24 mg/kg | time of maximal suppression ([1]; i.p.): 20 min | effect on paclitaxel-evoked thermal hyperalgesia and mechanical allodynia relative to vehicle ([1]; i.p., dose-dependent): suppressed
